Data: US6221914A, “Sulfonamide bridging compounds that inhibit tryptase activity” (Array Biopharma Inc., priority 1998, dated 2001)

What was measured:
Format in all cases: biochemical
Human lung tryptase = experiment: Ki determination, human lung tryptase (Tosyl-Gly-Pro-Arg-pNA substrate); conditions: 50 mM Tris-HCl pH 8.0, 37° C., 1 nM tryptase, 320 μM GPR-pNA; read-out: Experimentally Determined Ki, Tryptase
In short: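 Human lung tryptase (gel-filtration purified, active-site titrated), 1 nM final, preincubated 5 min with compound in 50 mM Tris-HCl pH 8.0, 150 mM NaCl, 0.02% Triton X-100 at 37° C. Tosyl-Gly-Pro-Arg-pNA (320 μM final) added; A405 read after 15 min. Ki from fitting to two-site competitive binding equation.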

Human plasma factor Xa = target: T1, Human plasma factor Xa (Homo sapiens, UniProt P00742); experiment: Ki determination, human plasma factor Xa (N-Benzoyl-Ile-Glu-Gly-Arg-pNA); conditions: 50 mM Tris-HCl, pH 7.8, 200 mM NaCl, 0.05% BSA; read-out: Experimentally Determined Ki, Factor Xa
T1 construct: from tissue; host or cells: human plasma
In short: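 Enzyme preincubated with compound 15 min at 37° C in 50 mM Tris-HCl pH 7.8, 200 mM NaCl, 0.05% BSA, then N-Benzoyl-Ile-Glu-Gly-Arg-pNA added and p-nitroaniline read at 405 nm. Ki from tight-binding equation with active-site-titrated enzyme, corrected for substrate, or from competitive-inhibitor equations when Ki >> [E]o.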

Human plasma plasmin = target: T2, Human plasma plasmin (Homo sapiens, UniProt P00747); experiment: Ki determination, human plasma plasmin (Tosyl-Gly-Pro-Lys-pNA); conditions: 100 mM Tris-HCl, pH 7.4, 100 mM NaCl, 0.05% Triton X-100; read-out: Experimentally Determined Ki, Plasmin
T2 construct: from tissue; host or cells: human plasma
In short: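 Enzyme preincubated with inhibitor 15 min at 37° C. in 100 mM Tris-HCl pH 7.4, 100 mM NaCl, 0.05% Triton X-100, then Tosyl-Gly-Pro-Lys-pNA added; p-nitroaniline release followed at 405 nm. Ki from tight-binding equation (active-site-titrated [E]o), corrected for substrate, or competitive-inhibitor equation when Ki >>[E]o.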

r-tissue kallikrein = r-tissue kallikrein (Homo sapiens, UniProt P06870); experiment: Ki determination, r-tissue kallikrein (DL-Val-Leu-Arg-pNA); conditions: 50 mM Tris-HCl, pH 7.8, 200 mM NaCl, 0.05% BSA; read-out: Experimentally Determined Ki, Tissue Kallikrein
In short: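 Enzyme preincubated with test compound 15 min at 37° C in 50 mM Tris-HCl pH 7.8, 200 mM NaCl, 0.05% BSA; residual activity read at 405 nm after adding H-D-Prolyl-Phe-Arg-pNA (plasma) or DL-Val-Leu-Arg-pNA (tissue). Ki from tight-binding equation (enzyme active-site titrated) corrected for substrate, or competitive-inhibitor equation when Ki >>[E]o.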

Human plasma thrombin = target: T3, Human plasma thrombin (Homo sapiens, UniProt P00734); experiment: Ki determination, human plasma thrombin (H-D-Phe-Pip-Arg-pNA); conditions: 50 mM Tris-HCl, pH 8.3, 100 mM NaCl, 1% BSA; read-out: Experimentally Determined Ki, Thrombin
T3 construct: from tissue; host or cells: human plasma
In short: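 Plasma thrombin preincubated with compound 15 min at 37 °C in 50 mM Tris-HCl pH 8.3, 100 mM NaCl, 1% BSA, then H-D-Phe-Pip-Arg-pNA added; p-nitroaniline release read at 405 nm. Ki from tight-binding equation (active-site-titrated enzyme) corrected for substrate, or competitive-inhibitor equation when Ki >> [E]o.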

[1] = target: T4, Bovine Pancreatic Chymotrypsin (Bos taurus, UniProt P00766); experiment: Ki determination, bovine pancreatic chymotrypsin (N-Suc-Ala-Ala-Pro-Phe-pNA); conditions: 100 mM Tris-HCl, pH 7.8, 10 mM CaCl2; read-out: Experimentally Determined Ki, Chymotrypsin
T4 construct: from tissue; host or cells: bovine pancreas
In short: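 Enzyme was preincubated with test compound for 15 min at 37° C before N-Suc-Ala-Ala-Pro-Phe-pNA was added, in 100 mM Tris-HCl, pH 7.8, 10 mM CaCl2. p-Nitroaniline release was read at 405 nm. Ki came from the tight-binding equation with [E]o set by active-site titration and corrected for substrate, or from competitive-inhibitor equations when Ki >>[E]o.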

T1 sequence (P00742 235-488 limits assumed): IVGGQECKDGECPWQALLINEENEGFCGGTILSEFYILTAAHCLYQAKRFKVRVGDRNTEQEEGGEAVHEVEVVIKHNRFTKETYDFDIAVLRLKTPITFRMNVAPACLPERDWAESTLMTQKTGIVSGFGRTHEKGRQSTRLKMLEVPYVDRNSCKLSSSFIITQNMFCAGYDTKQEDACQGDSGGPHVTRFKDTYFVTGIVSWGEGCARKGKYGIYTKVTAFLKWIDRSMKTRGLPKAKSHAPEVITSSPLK
T1 sequence (P00742 41-179 partner limits assumed): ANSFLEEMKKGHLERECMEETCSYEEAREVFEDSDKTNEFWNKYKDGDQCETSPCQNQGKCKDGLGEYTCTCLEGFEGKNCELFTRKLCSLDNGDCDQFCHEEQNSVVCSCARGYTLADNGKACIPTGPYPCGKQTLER
T2 sequence (P00747 581-810 limits assumed): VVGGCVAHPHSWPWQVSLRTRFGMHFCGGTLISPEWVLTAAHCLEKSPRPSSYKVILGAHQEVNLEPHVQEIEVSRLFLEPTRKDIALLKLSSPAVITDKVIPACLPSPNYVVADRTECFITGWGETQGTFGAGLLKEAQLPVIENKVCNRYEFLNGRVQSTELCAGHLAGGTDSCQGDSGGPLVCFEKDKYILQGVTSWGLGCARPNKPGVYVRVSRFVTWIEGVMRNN
T2 sequence (P00747 97-580 partner limits assumed): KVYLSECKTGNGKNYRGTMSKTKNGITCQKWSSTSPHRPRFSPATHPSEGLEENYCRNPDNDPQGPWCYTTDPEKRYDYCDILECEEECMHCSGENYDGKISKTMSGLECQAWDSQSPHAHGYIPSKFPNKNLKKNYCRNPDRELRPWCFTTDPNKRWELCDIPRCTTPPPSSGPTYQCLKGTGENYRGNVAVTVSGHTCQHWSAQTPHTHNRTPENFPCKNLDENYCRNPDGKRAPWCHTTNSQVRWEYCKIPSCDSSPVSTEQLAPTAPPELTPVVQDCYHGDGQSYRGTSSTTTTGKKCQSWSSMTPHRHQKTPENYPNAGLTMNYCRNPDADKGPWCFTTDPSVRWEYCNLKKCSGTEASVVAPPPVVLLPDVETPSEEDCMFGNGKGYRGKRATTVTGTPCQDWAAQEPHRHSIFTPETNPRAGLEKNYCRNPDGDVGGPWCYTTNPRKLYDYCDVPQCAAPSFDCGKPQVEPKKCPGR
r-tissue kallikrein, sequence (P06870 25-262): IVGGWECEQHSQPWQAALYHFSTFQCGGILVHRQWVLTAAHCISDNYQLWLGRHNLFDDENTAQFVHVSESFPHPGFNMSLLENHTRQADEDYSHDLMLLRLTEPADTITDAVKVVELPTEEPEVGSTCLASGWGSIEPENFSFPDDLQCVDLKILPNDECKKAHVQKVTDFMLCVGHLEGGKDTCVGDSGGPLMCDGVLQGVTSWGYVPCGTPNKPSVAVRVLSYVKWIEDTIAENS

| Structure (SMILES) | Ki (Human lung tryptase) | Ki (Human plasma factor Xa) | Ki (Human plasma plasmin) | Ki (r-tissue kallikrein) | Ki (Human plasma thrombin) | Ki [1] |
| --- | --- | --- | --- | --- | --- | --- |
| N=C(N)c1ccc(C(=O)NCc2ccc(OCCCOc3ccc(CNS(=O)(=O)c4cccc(C(=N)N)c4)cc3)cc2)cc1 [Example 86, 4-Carbamimidoyl-N-[4-(3-{4-[(3-carbamimidoyl-benzenesulfonylamino)-methyl]-phenoxy}-propoxy)-benzyl]-benzamide] | 0.003 µM | 10 µM | 0.34 µM | > 100 µM | > 100 µM | > 100 µM |
| N=C(N)c1ccc(C(=O)NCc2ccc(OCCCOc3ccc(CNC(=O)c4ccc(CN)cc4)cc3)cc2)cc1 [Example 87, N-[4-(3-{4-[(4-Aminomethyl-benzoylamino)-methyl]-phenoxy}-propoxy)-benzyl]-4-carbamimidoyl-benzamide] | 0.002 µM | 19 µM | 7.6 µM | > 100 µM | > 100 µM | > 100 µM |
| N=C(N)c1ccc(C(=O)NCc2ccc(OCC3(COc4ccc(CNC(=O)c5ccc(C(=N)N)cc5)cc4)CCC3)cc2)cc1 [Example 93, 1,1-Bis-{4-[(4-carbamimidoyl-benzoyl-amino)-methyl]-phenoxy-methyl}-cyclobutane] | 0.001 µM | 15 µM | 6.7 µM | 14 µM | > 100 µM | > 100 µM |
| N=C(N)c1ccc2cc(C(=O)NCc3ccc(OCCOc4ccc(CNC(=O)c5ccc6cc(C(=N)N)ccc6c5)cc4)cc3)ccc2c1 [Example 100, 1,2-Bis-{4-[(6-carbamimidoylnaphthalene-2-carbonylamino)-methyl]-phenoxy}-ethane] | 0.0002 µM | > 100 µM | 0.74 µM | > 100 µM | > 100 µM | 18 µM |
| N=C(N)c1ccc2[nH]c(CC(=O)NCc3ccc(OCCCOc4ccc(CNC(=O)Cc5nc6cc(C(=N)N)ccc6[nH]5)cc4)cc3)nc2c1 [Example 107, 2-(5-Carbamimidoyl-1H-benzoimidazol-2-yl)-N-{4,-[3-(4-{2-(5-carbamimidoyl-1H-benzoimidazol-2-yl)acetylaminol-methyl}-phenoxy)-propoxy]-benzyl}-acetamide] | 0.012 µM | 27 µM | 2.1 µM | > 100 µM | > 100 µM | 26 µM |
| N=C(N)c1ccc2[nH]c(CC(=O)NCc3ccc(OCCCCCOc4ccc(CNC(=O)Cc5nc6cc(C(=N)N)ccc6[nH]5)cc4)cc3)nc2c1 [Example 108] | 0.009 µM | 19 µM | 1.4 µM | > 100 µM | > 100 µM | > 100 µM |
| N=C(N)c1ccc2[nH]c(CC(=O)NCc3ccc(OCCCCOc4ccc(CNC(=O)Cc5nc6cc(C(=N)N)ccc6[nH]5)cc4)cc3)nc2c1 [Example 109] | 0.008 µM | 40 µM | 0.11 µM | > 100 µM | > 100 µM | 14.7 µM |
| N=C(N)c1ccc2sc(C(=O)NCc3ccc(OCCCOc4ccc(CNC(=O)c5cc6cc(C(=N)N)ccc6s5)cc4)cc3)cc2c1 [Example 117, 1,3-Bis-{4-[(5-carbamidoyl-2-benzthiophenyl-carbamido)-methyl]-phenoxy}-propane] | 0.012 µM | 59 µM | 50 µM | > 100 µM | > 100 µM | 40 µM |
